IC50 data for 27 compounds are collected here from patent US10023570B2 (Array BioPharma, Inc., priority 2015, dated 2018).

Structures can show the parent of a compound that is named as a salt.

Chain of human KDR protein in HEK-293 cells (P35968 20-1356): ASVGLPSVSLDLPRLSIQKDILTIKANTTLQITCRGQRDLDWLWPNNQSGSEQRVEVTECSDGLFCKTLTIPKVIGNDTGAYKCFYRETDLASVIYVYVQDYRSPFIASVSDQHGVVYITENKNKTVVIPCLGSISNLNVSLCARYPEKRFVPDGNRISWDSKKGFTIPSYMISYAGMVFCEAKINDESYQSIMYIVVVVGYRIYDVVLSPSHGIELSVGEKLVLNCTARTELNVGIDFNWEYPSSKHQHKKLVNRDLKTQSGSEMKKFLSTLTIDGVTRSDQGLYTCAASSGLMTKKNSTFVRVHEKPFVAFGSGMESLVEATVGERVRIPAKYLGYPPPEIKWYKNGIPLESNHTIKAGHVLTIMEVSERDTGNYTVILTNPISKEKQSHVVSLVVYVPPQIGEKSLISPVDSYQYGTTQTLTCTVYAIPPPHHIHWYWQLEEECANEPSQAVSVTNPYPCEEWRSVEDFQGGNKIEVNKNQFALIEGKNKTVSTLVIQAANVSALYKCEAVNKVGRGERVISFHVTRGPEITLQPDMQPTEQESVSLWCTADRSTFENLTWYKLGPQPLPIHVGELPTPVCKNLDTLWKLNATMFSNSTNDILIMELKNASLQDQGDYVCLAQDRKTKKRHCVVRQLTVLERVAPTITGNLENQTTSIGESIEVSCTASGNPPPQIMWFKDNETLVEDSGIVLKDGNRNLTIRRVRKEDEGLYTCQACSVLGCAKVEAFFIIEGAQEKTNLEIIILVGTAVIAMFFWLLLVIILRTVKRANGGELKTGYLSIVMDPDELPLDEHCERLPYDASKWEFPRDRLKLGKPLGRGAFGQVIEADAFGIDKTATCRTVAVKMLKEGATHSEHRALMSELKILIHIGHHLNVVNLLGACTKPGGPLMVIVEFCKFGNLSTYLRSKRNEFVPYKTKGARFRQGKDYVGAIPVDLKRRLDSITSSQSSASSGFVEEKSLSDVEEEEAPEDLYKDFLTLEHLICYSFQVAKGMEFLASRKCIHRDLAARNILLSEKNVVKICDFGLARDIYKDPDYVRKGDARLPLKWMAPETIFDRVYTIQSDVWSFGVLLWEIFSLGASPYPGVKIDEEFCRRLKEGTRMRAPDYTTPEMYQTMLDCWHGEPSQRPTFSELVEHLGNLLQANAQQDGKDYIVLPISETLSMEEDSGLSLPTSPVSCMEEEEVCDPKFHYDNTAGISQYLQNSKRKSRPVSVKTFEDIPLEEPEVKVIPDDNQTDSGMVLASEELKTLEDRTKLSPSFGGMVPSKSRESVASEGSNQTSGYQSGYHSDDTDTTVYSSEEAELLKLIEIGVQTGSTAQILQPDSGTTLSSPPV

The first assay deals with human KDR protein in HEK-293 cells (Homo sapiens (Human), UniProt P35968). In words: KDR Cell Assay (phospho-KDR in HEK-293 cells expressing inducible KDR). Type of assay: cell-based. The conditions noted are these: pKDR Cell HEK 10% FBS IC50. Put shortly:
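HEK-293 cells with inducible human KDR were treated with compound for 1 h in DMEM (0.25% DMSO final), then lysed. Phospho-KDR was quantified by Meso Scale immunoassay, expressed as percent of control, and IC50 taken where a 4-parameter logistic fit crossed 50 POC.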
With `CC[C@H](O)CN1CCN(c2ccc(-c3cc(-c4cnn(C)c4)cn4ncc(C#N)c34)cn2)CC1` [Example 150, (S)-4-(6-(4-(2-hydroxybutyl)piperazin-1-yl)pyridin-3-yl)-6-(1-methyl-1H-pyrazol-4-yl)pyrazolo[1,5-a]pyridine-3-carbonitrile], it took 728 nM to reach half-maximal inhibition (IC50).

The same assay, now with this note: pKDR Cell HEK 10% FBS IC50, HEK-293 cells expressing inducible KDR, VEGF stimulated.
For the compound `Cn1cc(-c2cc(-c3ccc(N4CCC5(CCCN5)CC4)nc3)c3c(C#N)cnn3c2)cn1` [Example 541, 4-(6-(1,8-diazaspiro[4.5]decan-8-yl)pyridin-3-yl)-6-(1-methyl-1H-pyrazol-4-yl)pyrazolo[1,5-a]pyridine-3-carbonitrile dihydrochloride], the IC50 worked out at 534 nM.

`COC1CCN(C(=O)N2CCN(c3ccc(-c4cc(-c5cnn(C)c5)cn5ncc(C#N)c45)cn3)CC2)CC1` [Example 376, 4-(6-(4-(4-methoxypiperidine-1-carbonyl)piperazin-1-yl)pyridin-3-yl)-6-(1-methyl-1H-pyrazol-4-yl)pyrazolo[1,5-a]pyridine-3-carbonitrile]: the IC50 turned out to be 1830 nM.

As for `Cn1cc(-c2cc(-c3ccc(N4CCN(C(=O)N5CC6C(C5)C6(C)C)CC4)nc3)c3c(C#N)cnn3c2)cn1` (stereo not drawn) [Example 384, 4-(6-(4-(6,6-dimethyl-3-azabicyclo[3.1.0]hexane-3-carbonyl)piperazin-1-yl)pyridin-3-yl)-6-(1-methyl-1H-pyrazol-4-yl)pyrazolo[1,5-a]pyridine-3-carbonitrile], the IC50 worked out at 1040 nM.

Consider `Cn1cc(-c2cc(-c3ccc(N4CCN(Cc5ccccn5)CC4)nc3)c3c(C#N)cnn3c2)cn1` [Example 473, 6-(1-methyl-1H-pyrazol-4-yl)-4-(6-(4-(pyridine-2-ylmethyl)piperazin-1-yl)pyridin-3-yl)pyrazolo[1,5-a]pyridine-3-carbonitrile], for which the IC50 was found to be 968 nM.

On to `Cn1cc(-c2cc(-c3ccc(N4CCC(Oc5ccc(Cl)cc5)CC4)nc3)c3c(C#N)cnn3c2)cn1` [Example 509, 4-(6-(4-(4-chlorophenoxy)piperidin-1-yl)pyridin-3-yl)-6-(1-methyl-1H-pyrazol-4-yl)pyrazolo[1,5-a]pyridine-3-carbonitrile], for which the IC50 is 9.2 nM.

Compound `COc1cncc(CN2CCN(c3ccc(-c4cc(-c5cnn(C)c5)cn5ncc(C#N)c45)cn3)CC2)c1` [Example 442, 4-(6-(4-((5-methoxypyridin-3-yl)methyl)piperazin-1-yl)pyridine-3-yl)-6-(1-methyl-1H-pyrazol-4-yl)pyrazolo[1,5-a]pyridine-3-carbonitrile] displayed an IC50 of 1670 nM.

Regarding `Cn1cc(-c2cc(-c3ccc(N4CC5CCC(C4)N5Cc4ccccc4)nc3)c3c(C#N)cnn3c2)cn1` [Example 484, 4-(6-(8-benzyl-3,8-diazabicyclo[3.2.1]octan-3-yl)pyridin-3-yl)-6-(1-methyl-1H-pyrazol-4-yl)pyrazolo[1,5-a]pyridine-3-carbonitrile], the IC50 was found to be 209 nM.

Consider `Cn1cc(-c2cc(-c3ccc(N4CCC5(CCCNC5)C4)nc3)c3c(C#N)cnn3c2)cn1` (stereo not drawn) [Example 546, 4-(6-(2,7-diazaspiro[4.5]decan-2-yl)pyridin-3-yl)-6-(1-methyl-1H-pyrazol-4-yl)pyrazolo[1,5-a]pyridine-3-carbonitrile dihydrochloride], for which the IC50 is 811 nM.

`Cn1cc(-c2cc(-c3ccc(N4CCN(Cc5cncc(F)c5)CC4)nc3)c3c(C#N)cnn3c2)cn1` [Example 423, 4-(6-(4-((5-fluoropyridin-3-yl)methyl)piperazin-1-yl)pyridin-3-yl)-6-(1-methyl-1H-pyrazol-4-yl)pyrazolo[1,5-a]pyridine-3-carbonitrile] registered an IC50 of 1370 nM.

Staying with this assay, now noted: pKDR Cell HEK 10% FBS IC50, HEK-293 cells expressing inducible KDR, VEGF stimulated, 10% FBS.
The compound `CCN(CC)C(C(=O)N1CCN(c2ccc(-c3cc(-c4cnn(C)c4)cn4ncc(C#N)c34)cn2)CC1)c1ccccc1` (stereo not drawn) [Example 364, 4-(6-(4-(2-(diethylamino)-2-phenylacetyl)piperazin-1-yl)pyridin-3-yl)-6-(1-methyl-1H-pyrazol-4-yl)pyrazolo[1,5-a]pyridine-3-carbonitrile bis(2,2,2-trifluoroacetate)] returned an IC50 of 4360 nM.

As to `CC(C)CC(=O)N1CCN(c2ccc(-c3cc(-c4ccn(C)n4)cn4ncc(C#N)c34)cn2)CC1` [Example 273, 6-(1-methyl-1H-pyrazol-3-yl)-4-(6-(4-(3-methylbutanoyl)piperazin-1-yl)pyridin-3-yl)pyrazolo[1,5-a]pyridine-3-carbonitrile], the IC50 amounted to 2140 nM.

As for `COC[C@@H]1CCCN1C(=O)N1CCN(c2ccc(-c3cc(-c4cnn(C)c4)cn4ncc(C#N)c34)cn2)CC1` [Example 111, (S)-4-(6-(4-(2-(methoxymethyl)pyrrolidine-1-carbonyl)piperazin-1-yl)pyridin-3-yl)-6-(1-methyl-1H-pyrazol-4-yl)pyrazolo[1,5-a]pyridine-3-carbonitrile], the IC50 worked out at 1960 nM.

The compound `Cn1cc(-c2cc(-c3ccc(N4CCN(C(=O)C5(C(F)(F)F)CC5)CC4)nc3)c3c(C#N)cnn3c2)cn1` [Example 346, 6-(1-methyl-1H-pyrazol-4-yl)-4-(6-(4-(1-(trifluoromethyl)cyclopropanecarbonyl)piperazin-1-yl)pyridin-3-yl)pyrazolo[1,5-a]pyridine-3-carbonitrile] came in with an IC50 of 1770 nM.

Take `Cn1cc(-c2cc(-c3ccc(N4CCN(C(=O)CC(C)(C)C)CC4)cc3)c3c(C#N)cnn3c2)cn1` [Example 294, 4-(4-(4-(3,3-dimethylbutanoyl)piperazin-1-yl)phenyl)-6-(1-methyl-1H-pyrazol-4-yl)pyrazolo[1,5-a]pyridine-3-carbonitrile]: half-maximal inhibition (IC50) was put at 2100 nM.

`Cn1cc(-c2cc(-c3ccc(N4CCN(C(=O)c5c(F)cccc5F)CC4)nc3)c3c(C#N)cnn3c2)cn1` [Example 51, 4-(6-(4-(2,6-difluorobenzoyl)piperazin-1-yl)pyridin-3-yl)-6-(1-methyl-1H-pyrazol-4-yl)pyrazolo[1,5-a]pyridine-3-carbonitrile 2,2,2-trifluoroacetate] showed a 50% inhibitory concentration (IC50) of 267 nM.

Compound `C[C@@H](CO)Cn1cc(-c2cc(-c3ccc(N4CCN(C(=O)CC(C)(C)C)CC4)cc3)c3c(C#N)cnn3c2)cn1` [Example 306, (R)-4-(4-(4-(3,3-dimethylbutanoyl)piperazin-1-yl)phenyl)-6-(1-(3-hydroxy-2-methylpropyl)-1H-pyrazol-4-yl)pyrazolo[1,5-a]pyridine-3-carbonitrile] registered an IC50 of 880 nM.

`CO[C@H]1C[C@H](NC(=O)C2CCN(c3ccc(-c4cc(-c5cnn(C)c5)cn5ncc(C#N)c45)cn3)CC2)C1` [Example 240, 1-(5-(3-cyano-6-(1-methyl-1H-pyrazol-4-yl)pyrazolo[1,5-a]pyridin-4-yl)pyridin-2-yl)-N-((1r,3r)-3-methoxycyclobutyl) piperidine-4-carboxamide] had an IC50 of 897 nM.

As for `Cn1cc(-c2cc(-c3ccc(N4CCN(S(C)(=O)=O)CC4)nc3)c3c(C#N)cnn3c2)cn1` [Example 88, 6-(1-methyl-1H-pyrazol-4-yl)-4-(6-(4-(methylsulfonyl)piperazin-1-yl)pyridin-3-yl)pyrazolo[1,5-a]pyridine-3-carbonitrile], the IC50 was found to be 195 nM.

Compound `Cn1cc(-c2cc(-c3ccc(N4CCN(C(=O)[C@H](O)c5ccccc5)CC4)nc3)c3c(C#N)cnn3c2)cn1` [Example 82, (R)-4-(6-(4-(2-hydroxy-2-phenylacetyl)piperazin-1-yl)pyridin-3-yl)-6-(1-methyl-1H-pyrazol-4-yl)pyrazolo[1,5-a]pyridine-3-carbonitrile] had an IC50 of 91.2 nM.

Take `Cn1cc(-c2cc(-c3ccc(N4CCC5(CCN(C(=O)OC(C)(C)C)C5)CC4)nc3)c3c(C#N)cnn3c2)cn1` [Example 204, tert-butyl 8-(5-(3-cyano-6-(1-methyl-1H-pyrazol-4-yl)pyrazolo[1,5-a]pyridin-4-yl)pyridin-2-yl)-2,8-diazaspiro[4.5]decane-2-carboxylate]: the IC50 worked out at 429 nM.

Compound `Cn1cnc(C(=O)N2CCN(c3ccc(-c4cc(-c5cnn(C)c5)cn5ncc(C#N)c45)cn3)CC2)c1` [Example 36, 4-(6-(4-(1-methyl-1H-imidazole-4-carbonyl)piperazin-1-yl)pyridin-3-yl)-6-(1-methyl-1H-pyrazol-4-yl)pyrazolo[1,5-a]pyridine-3-carbonitrile bis(2,2,2-trifluoroacetate)] had an IC50 of 212 nM.

Turning to `Cn1cc(-c2cc(-c3ccc(N4CCN(C(=O)C5(c6cccnc6)CC5)CC4)nc3)c3c(C#N)cnn3c2)cn1` [Example 369, 6-(1-methyl-1H-pyrazol-4-yl)-4-(6-(4-(1-(pyridine-3-yl)cyclopropane-1-carbonyl)piperazin-1-yl)pyridin-3-yl)pyrazolo[1,5-a]pyridine-3-carbonitrile bis(2,2,2-trifluoroacetate)], the midpoint of inhibition, the IC50, lay at 1270 nM.

Compound `Cn1cc(-c2cc(-c3ccc(N4CCN(C(=O)CC5CCOCC5)CC4)nc3)c3c(C#N)cnn3c2)cn1` [Example 76, 6-(1-methyl-1H-pyrazol-4-yl)-4-(6-(4-(2-(tetrahydro-2H-pyran-4-yl)acetyl)piperazin-1-yl)pyridin-3-yl)pyrazolo[1,5-a]pyridine-3-carbonitrile] displayed an IC50 of 1010 nM.

`Cn1cc(-c2cc(-c3ccc(N4CCN(C(=O)C5(c6cccc(Cl)c6)CC5)CC4)nc3)c3c(C#N)cnn3c2)cn1` [Example 356, 4-(6-(4-(1-(3-chlorophenyl)cyclopropane-1-carbonyl)piperazin-1-yl)pyridin-3-yl)-6-(1-methyl-1H-pyrazol-4-yl)pyrazolo[1,5-a]pyridine-3-carbonitrile 2,2,2-trifluoroacetate] registered an IC50 of 126 nM.

`Cn1cc(-c2cc(-c3ccc(N4CCN(S(=O)(=O)CC(C)(C)C)CC4)nc3)c3c(C#N)cnn3c2)cn1` [Example 89]: the IC50 stood at 189 nM.

The compound `Cn1cc(-c2cc(-c3ccc(N4CCN(C(=O)C(c5ccccc5)N5CCOCC5)CC4)nc3)c3c(C#N)cnn3c2)cn1` (stereo not drawn) [Example 363, 6-(1-methyl-1H-pyrazol-4-yl)-4-(6-(4-(2-morpholino-2-phenylacetyl)piperazin-1-yl)pyridin-3-yl)pyrazolo[1,5-a]pyridine-3-carbonitrile bis(2,2,2-trifluoroacetate)] returned an IC50 of 2640 nM.

The IC50 is the concentration needed to halve the response being measured. The low end stands for inhibition by little substance, the high end for a need for much substance.
